Values quoted from earlier work in patent US9884121B2, “Biomaterials and a method for making and using same” (Alumend, LLC, priority 2007, dated 2018).

Tested on: Skin-to-skin
Conditions: U.S. Pat. No. 5,817,303

## C=C(C#N)C(=O)OCC [Ethyl cyanoacrylate]
  Shear Strength: 385 ± 119 g-f/cm^2
